The text below walks through data of ChEMBL document CHEMBL3991601, “The target landscape of clinical kinase drugs” (Science, 2017).

Active and inactive are the calls of the source.

In one test the target is Activin receptor type-2B (Homo sapiens, UniProt Q13705).
Test [1] has as its target T1, AarF domain-containing protein kinase 1 (Homo sapiens, UniProt Q86TW2).
T1 sequence (Q86TW2 whole entry): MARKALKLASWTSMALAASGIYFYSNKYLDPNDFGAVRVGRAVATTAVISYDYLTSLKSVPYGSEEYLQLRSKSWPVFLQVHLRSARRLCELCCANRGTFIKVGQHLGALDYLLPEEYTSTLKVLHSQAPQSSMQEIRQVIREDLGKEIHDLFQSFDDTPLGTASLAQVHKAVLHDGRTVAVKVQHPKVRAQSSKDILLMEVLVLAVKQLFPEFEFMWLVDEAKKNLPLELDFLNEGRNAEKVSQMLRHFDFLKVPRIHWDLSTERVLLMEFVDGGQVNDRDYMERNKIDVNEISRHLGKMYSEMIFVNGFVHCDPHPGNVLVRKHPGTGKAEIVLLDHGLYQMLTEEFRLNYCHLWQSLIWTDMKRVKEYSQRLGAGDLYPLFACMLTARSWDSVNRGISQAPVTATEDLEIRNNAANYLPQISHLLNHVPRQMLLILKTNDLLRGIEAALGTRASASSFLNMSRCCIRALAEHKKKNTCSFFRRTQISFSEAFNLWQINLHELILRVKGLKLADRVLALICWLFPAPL

For test [2], the target named is Tyrosine-protein kinase FRK (Homo sapiens, UniProt P42685).
Chain of Tyrosine-protein kinase FRK (P42685 whole entry): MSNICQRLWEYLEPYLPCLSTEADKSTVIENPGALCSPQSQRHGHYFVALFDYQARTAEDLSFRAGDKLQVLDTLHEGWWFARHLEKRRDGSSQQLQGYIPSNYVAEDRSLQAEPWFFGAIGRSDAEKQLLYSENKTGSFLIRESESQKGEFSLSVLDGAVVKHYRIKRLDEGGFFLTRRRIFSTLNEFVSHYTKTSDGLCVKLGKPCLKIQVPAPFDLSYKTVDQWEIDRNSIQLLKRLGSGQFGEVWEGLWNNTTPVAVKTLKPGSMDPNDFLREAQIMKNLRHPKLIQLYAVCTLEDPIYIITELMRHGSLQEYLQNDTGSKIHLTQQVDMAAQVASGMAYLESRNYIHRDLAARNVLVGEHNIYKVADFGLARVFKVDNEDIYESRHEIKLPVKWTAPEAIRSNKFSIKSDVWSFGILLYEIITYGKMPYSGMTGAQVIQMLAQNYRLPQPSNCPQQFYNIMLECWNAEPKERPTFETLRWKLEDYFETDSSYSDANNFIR
For a further test, the target named is GTP-binding protein 4 (Homo sapiens, UniProt Q9BZE4).
The target of test [3] is T2, Mitogen-activated protein kinase kinase kinase 2 (Homo sapiens, UniProt Q9Y2U5).
T2 sequence (Q9Y2U5 whole entry): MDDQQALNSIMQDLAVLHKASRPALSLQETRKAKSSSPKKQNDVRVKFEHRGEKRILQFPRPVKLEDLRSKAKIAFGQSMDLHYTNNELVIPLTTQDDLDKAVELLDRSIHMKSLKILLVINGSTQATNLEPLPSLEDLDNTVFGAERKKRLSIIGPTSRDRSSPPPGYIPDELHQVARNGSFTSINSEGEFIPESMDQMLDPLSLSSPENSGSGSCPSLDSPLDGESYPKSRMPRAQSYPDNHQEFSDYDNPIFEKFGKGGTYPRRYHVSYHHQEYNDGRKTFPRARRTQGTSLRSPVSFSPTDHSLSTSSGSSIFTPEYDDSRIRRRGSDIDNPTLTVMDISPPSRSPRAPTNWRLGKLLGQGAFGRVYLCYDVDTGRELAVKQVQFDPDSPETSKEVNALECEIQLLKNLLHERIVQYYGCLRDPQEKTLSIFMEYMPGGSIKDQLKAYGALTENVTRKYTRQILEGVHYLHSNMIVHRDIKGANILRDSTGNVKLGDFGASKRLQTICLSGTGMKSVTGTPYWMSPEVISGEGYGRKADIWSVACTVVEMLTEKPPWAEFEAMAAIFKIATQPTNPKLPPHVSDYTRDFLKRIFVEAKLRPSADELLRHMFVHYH

The target of test [4] is T3, MAP kinase-activated protein kinase 5 (Homo sapiens, UniProt Q8IW41).
T3 sequence (Q8IW41 whole entry): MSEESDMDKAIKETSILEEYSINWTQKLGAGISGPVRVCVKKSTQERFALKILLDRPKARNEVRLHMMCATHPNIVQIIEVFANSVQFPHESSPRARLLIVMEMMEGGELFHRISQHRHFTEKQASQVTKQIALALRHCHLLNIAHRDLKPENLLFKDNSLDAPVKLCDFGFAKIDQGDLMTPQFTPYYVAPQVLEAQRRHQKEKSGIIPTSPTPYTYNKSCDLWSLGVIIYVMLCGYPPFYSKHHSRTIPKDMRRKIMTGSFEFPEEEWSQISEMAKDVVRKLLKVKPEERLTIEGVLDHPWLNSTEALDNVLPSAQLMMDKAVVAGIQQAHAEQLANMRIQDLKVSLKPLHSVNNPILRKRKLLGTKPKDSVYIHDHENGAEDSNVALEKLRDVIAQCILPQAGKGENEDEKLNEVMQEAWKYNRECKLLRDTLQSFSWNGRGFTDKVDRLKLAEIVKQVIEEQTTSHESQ

Test [5] deals with T4, Bifunctional phosphoribosylaminoimidazole carboxylase/phosphoribosylaminoimidazole succinocarboxamide synthetase (Homo sapiens, UniProt P22234).
T4 sequence (P22234 whole entry): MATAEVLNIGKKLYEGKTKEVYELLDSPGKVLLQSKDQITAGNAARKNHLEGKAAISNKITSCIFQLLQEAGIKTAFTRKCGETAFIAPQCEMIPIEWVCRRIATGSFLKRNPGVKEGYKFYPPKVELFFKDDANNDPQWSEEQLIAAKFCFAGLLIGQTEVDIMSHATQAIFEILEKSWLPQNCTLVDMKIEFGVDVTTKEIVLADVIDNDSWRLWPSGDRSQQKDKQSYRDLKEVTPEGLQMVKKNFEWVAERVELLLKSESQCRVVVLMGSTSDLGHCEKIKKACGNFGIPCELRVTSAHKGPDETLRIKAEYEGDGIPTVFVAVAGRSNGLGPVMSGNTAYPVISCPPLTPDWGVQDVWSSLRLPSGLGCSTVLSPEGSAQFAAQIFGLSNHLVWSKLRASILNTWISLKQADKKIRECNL

The target of test [6] is Protein kinase C alpha type (Homo sapiens, UniProt P17252).
Test [7] addresses T5, Ras-related protein Rab-10 (Homo sapiens, UniProt P61026).
T5 sequence (P61026 whole entry): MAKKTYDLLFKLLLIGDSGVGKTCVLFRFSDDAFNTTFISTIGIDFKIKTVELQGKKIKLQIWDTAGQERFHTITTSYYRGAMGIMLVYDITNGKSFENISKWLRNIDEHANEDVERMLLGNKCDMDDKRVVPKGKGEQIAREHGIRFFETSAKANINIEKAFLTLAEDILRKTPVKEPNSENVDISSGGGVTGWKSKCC
Note: in the data inactive means no Kd found up to 30 µM.

Chain of Activin receptor type-2B (Q13705 whole entry, the tested form may be a part): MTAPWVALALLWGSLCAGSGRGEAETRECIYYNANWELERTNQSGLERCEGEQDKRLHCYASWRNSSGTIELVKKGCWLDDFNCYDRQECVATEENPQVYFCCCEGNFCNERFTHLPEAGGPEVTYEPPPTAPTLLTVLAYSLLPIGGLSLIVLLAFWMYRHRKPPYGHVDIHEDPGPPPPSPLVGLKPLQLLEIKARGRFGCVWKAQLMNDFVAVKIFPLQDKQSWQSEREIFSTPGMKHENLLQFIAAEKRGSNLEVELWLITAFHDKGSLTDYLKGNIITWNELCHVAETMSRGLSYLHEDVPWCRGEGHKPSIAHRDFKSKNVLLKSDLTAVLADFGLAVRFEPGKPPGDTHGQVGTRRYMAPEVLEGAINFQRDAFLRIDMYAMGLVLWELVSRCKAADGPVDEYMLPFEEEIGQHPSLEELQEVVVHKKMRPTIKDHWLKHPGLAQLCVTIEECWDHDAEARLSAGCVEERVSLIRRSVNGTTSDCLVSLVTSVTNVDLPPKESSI

Regarding `O=C(Nc1ccc(-c2ccnc(Nc3ccc(N4CCOCC4)cc3)n2)cc1)C1CCCN1` (stereo not drawn) [XL-019], the Kd at Activin receptor type-2B was > 30 µM (inactive); in test [1] it was 0.202 µM (active); in [2], > 30 µM (inactive); on GTP-binding protein 4, > 30 µM (inactive); in test [3], > 30 µM (inactive); in test [4], > 30 µM (inactive). The Kd in test [5], in test [6] and in test [7] was > 30 µM (inactive) each time.

As for `CNC(=O)CN1CCC(Oc2cc3c(Nc4cccc(Cl)c4F)ncnc3cc2OC)CC1` [SAPITINIB], the Kd (at Activin receptor type-2B; in test [1]; in test [2]; on GTP-binding protein 4; in test [3]; in test [4]) was > 30 µM (inactive) throughout. The Kd in [5], in test [6] and in [7] was > 30 µM (inactive) throughout.

As for `Cc1cc([C@@H](C)Nc2ccccc2C(=O)O)c2nc(N3CCOCC3)cc(=O)n2c1` [AZD-6482], the Kd (at Activin receptor type-2B; in [1]; in [2]; at GTP-binding protein 4; in [3]; in [4]) was > 30 µM (inactive) throughout. Further, the Kd in test [5], in test [6] and in [7] was > 30 µM (inactive) each time.

As to `CCN1CCN(Cc2ccc(-c3cc4c(N[C@H](C)c5ccccc5)ncnc4[nH]3)cc2)CC1` [AEE-788], the Kd (on Activin receptor type-2B; in test [1]; in test [2]; on GTP-binding protein 4; in [3]; in test [4]) was > 30 µM (inactive) each time. Further, the Kd in test [5], in test [6] and in test [7] was > 30 µM (inactive) each time.

Consider `CN1N=C(N)c2cn([C@@H]3O[C@H](COP(=O)(O)O)[C@@H](O)[C@H]3O)c3ncnc1c23` [TRICIRIBINE PHOSPHATE], for which the Kd (on Activin receptor type-2B; in [1]; in [2]; on GTP-binding protein 4; in test [3]; in test [4]) was > 30 µM (inactive) throughout. Moreover, the Kd in [5], in test [6] and in [7] was > 30 µM (inactive) in each case.

Turning to `CC(=O)Nc1cccc(-n2c(=O)n(C3CC3)c(=O)c3c(Nc4ccc(I)cc4F)n(C)c(=O)c(C)c32)c1` [TRAMETINIB], the Kd (at Activin receptor type-2B; in test [1]; in test [2]; on GTP-binding protein 4; in test [3]; in [4]) was > 30 µM (inactive) throughout. For the same molecule, the Kd in [5], in test [6] and in test [7] was > 30 µM (inactive) in each case.

On to `CNS(=O)(=O)Nc1nccc(Cc2c(C)c3ccc(Oc4ncccn4)cc3oc2=O)c1F` [AVUTOMETINIB], for which the Kd (at Activin receptor type-2B; in test [1]; in test [2]; at GTP-binding protein 4; in test [3]; in [4]) was > 30 µM (inactive) throughout. The Kd in [5], in test [6] and in test [7] was > 30 µM (inactive) in each case.
